Patent US8592419B2, “Ceramides and apoptosis-signaling ligand” (MUSC Foundation for Research Development, priority 2004, dated 2013)

Key:
Format in all cases: cell-based, human
[1] = tested on: p73; experiment: Immunoblot of p73
Experimental: (§1) Immunoblot analysis. Cells were seeded in 60mm plates as described above and treated accordingly. Cells were lifted by gently scraping the plates, washed once with ice cold PBS and then lysed in lysis buffer (PBS, 1% Triton X-100, 10% glycerol) containing protease inhibitors pepstatin A (0.5 μg/ml), leupeptin (0.5 μg/ml), aprotinin (5 μg/ml), and PMSF (100 μg/ml) for 10 minutes on ice. Insoluble material was removed by centrifugation at 14,000 rpm for 15 minutes at 4° C. The supernatants were then supplemented with SDS at a final concentration of 2% and stored at −80° C. Protein concentrations were determined using the DC Protein Assay (BioRad Laboratories; Hercules, CA, USA) according to the manufacturer's instructions. 50 μg of protein per sample (unless otherwise indicated) were separated on NuPAGE 4-12% Bis-Tris gels (Invitrogen; Carlsbad, CA, USA) and transferred to nitrocellulose membranes (BioRad). Following transfer, membranes were blocked for 1 hour at room temperature in Tris-buffered saline (TBS) containing 0.1% Tween-20 and 5% nonfat dry milk and incubated overnight at 4° C. with primary antibody at a dilution of 1:2,000(actin), 1:1,000(cytochrome c, COX IV, Bax, Bak, p53, p38, P-p38), 1:500(P-JNK, JNK), 1:250 (AC, p73), or 1:400(LAMP-1, cathepsin B). Overnight incubations were performed in 5% milk in TBS-Tween. Following overnight incubation, membranes were washed three times for 10 minutes each in TBS-Tween and incubated for 1 hour at room temperature with secondary antibody in 5% milk TBS-Tween at a dilution 1:5,000 (goat anti-mouse IgG) or 1:50,000 (goat anti-rabbit). Membranes were then washed three times more and incubated for 5 minutes at room temperature with Super Signal HRP substrate (Pierce Biotechnology Inc.; Rockford, IL, USA).

[2] = tested on: p53; experiment: Immunoblot of p53; details: DU145 cells, 10 μM
Experimental: as §1, with “Following overnight incubation, membranes were washed three times for 10 minutes each in TBS-Tween and incubated for 1 hour at room temperature with secondary antibody in 5% milk TBS-Tween at a dilution 1:5,000 (goat anti-mouse IgG) or 1:50,000 (goat anti-rabbit). Membranes were then washed three times more and incubated for 5 minutes at room temperature with Super Signal HRP substrate (Pierce Biotechnology Inc.; Rockford, IL, USA).” left out

[3] = tested on: DU145 cells; experiment: MTS cell viability assay in DU145 cells; details: in vitro
Experimental: MTS cytotoxicity assays for LCL204 treatments. Cell viability was determined using the CellTiter 96 AQueous One Solution Cell Proliferation Assay (Promega; Madison, Wis., USA). 1×10^4 cells per well were seeded in 96-well plates overnight. The next day media was removed and replaced with either 100 μl media with vehicle control or media containing LCL204 at desired concentrations. Assays were carried out according to manufacturer's instruction as previously described (60). For experiments using enzyme inhibitors and LCL204, media was removed and replaced with 50 μl media containing vehicle only or indicated inhibitor. Cells were pretreated 1 hour at 37° C. before adding 50 μl media containing vehicle, inhibitor only, LCL204 only (2× concentration), or a combination. The remainder of the assay was carried out as described above.

[4] = tested on: LAMP-1; experiment: Immunoblot of LAMP-1; details: DU145 cells, 12 hours LCL204
Experimental: as §1, with “Following overnight incubation, membranes were washed three times for 10 minutes each in TBS-Tween and incubated for 1 hour at room temperature with secondary antibody in 5% milk TBS-Tween at a dilution 1:5,000 (goat anti-mouse IgG) or 1:50,000 (goat anti-rabbit). Membranes were then washed three times more and incubated for 5 minutes at room temperature with Super Signal HRP substrate (Pierce Biotechnology Inc.; Rockford, IL, USA).” left out

## CCCCCCCCCCCCCCN[C@H](CO)[C@H](O)c1ccc([N+](=O)[O-])cc1.Cl [LCL204, (1R,2R) D-threo-2-N-Tetradecylamino-1-(4′-nitrophenyl)-1,3-propandiol hydrochloride]
[1]; PC-3 cells, 10 μM
  p73β induction: p73β induction was detected after only two hours
[1]; PPC-1/pcDNA3 cells
  p73β induction: time-dependent p73β induction
[2]
  p53 induction: induced p53 in DU145 cells after four hours
[3]
  potency as inducer of cell death compared with B13: much more potent inducer of cell death than B13
[4]
  LAMP-1 expression: increases
